Tests used:
Type in all cases: cell-based, mouse
Design in all cases: key: NS=not significant; a “+” sign=anti-inflammatory or increased cell numbers; a “−” sign=cell toxicity or pro-inflammatory
[1] = system: nitrite levels in the culture media; test: Nitrite level (Griess Reagent System) in LPS-challenged RAW 264.7 cells; conditions: LPS 30 or 60 ng/mL, 24 h
Method: (§1) Nitrite levels in the culture media were measured by use of the Griess Reagent System (Promega, Madison, Wis.), following the manufacturer's protocol. The O.D. of unknown samples was read at 520 nm λ, compared to a sodium nitrite standard curve (1.5 μM to 100 μM) and nitrite measured media concentrations expressed as μM units. As the lowest nitrite concentration on the Griess Reagent System standard curve was 1.5 μM, this was chosen as the effective cutoff for defining measurable nitrite concentrations. TNF-α protein levels were measured by use of an ELISA specific for mouse TNF-α protein (BioLegend, San Diego, Calif.) and are expressed as a % change from their appropriate control or as pg/ml.
(§2) RAW 264.7 cells obtained from ATCC (Manassas, Va., USA) were grown in DMEM media supplemented with 10% FCS, penicillin 100 μg/ml and streptomycin 100 μg/ml, and maintained at 37° C. and 5% CO2. Cells were seeded in 24 well plates and, 24 hours later, were utilized in studies. One hour prior to the initiation of any study, the seeding media was replaced with fresh media (1 mL), and the cells were allowed to equilibrate at 37° C. and 5% CO2.
(§3) RAW 264.7 cells were challenged with LPS (Sigma, St Louis, Mo.: serotype 055:B5) from at a final concentration of 30 or 60 ng/mL. This concentration of LPS in RAW 264.7 cells induces a sub-maximal rise in both TNF-alpha and nitrite levels without a loss in cellular viability. This sub-maximal rise is useful for assessing whether the addition of an experimental drug can either lower or further raise levels of TNF-α and nitrite. Twenty four hours following the addition of LPS, conditioned media was harvested and analyzed for quantification of secreted TNF-α protein and nitrite levels. Fresh media was replaced into the wells and cell viability was then assessed.
(§4) Thalidomide and analogs were prepared in tissue culture grade DMSO (Sigma). RAW 264.7 cells were pretreated with thalidomide, analogues or vehicle one hour prior to a challenge with LPS. The effects of various concentrations of thalidomide analogues were assessed. All compounds were synthesized to a chemical purity of >99.5%, as assessed by chemical characterization by a combination of 1H NMR, 13C NMR and GC/MS analyses (Bruker AC-300 spectrometer, together with elemental analyses (Atlantic Microlab, Inc., Norcross, Ga.).

[2] = system: TNF-α protein; test: TNF-α protein level (ELISA) in LPS-challenged RAW 264.7 cells; conditions: LPS 30 or 60 ng/mL, 24 h
Method: as §1, §2, §3, §4

[3] = system: RAW 264.7 cells; test: Cell viability (CellTiter 96 AQueous One) of LPS-challenged RAW 264.7 cells
Method: The CellTiter 96® AQueous One Solution Cell Proliferation Assay (Promega, Madison, Wis.) is routinely used as an assay of cell proliferation, and was used according to the manufacturer's recommendations. Changes in cellular health status are determined by use of indirect measures related to the formation of a colored tetrazolium dye product that can be measured spectrophotometrically at 490 nm λ. […] Optical densities (expressed as O.D.s) were measured after various incubations.
as §2, §3, §4

## CC1(C)[C@@H]2CC[C@H](CN3C(=O)C4C5C=CC(C5)C4C3=O)[C@H]1C2 (stereo partly drawn) [Compound 113]
[1]; 10 μM
  Nitrite: NS
[1]; 30 μM
  Nitrite: +
[1]; 60 μM
  Nitrite: +
[2]; 10 μM
  TNF-α: NS
[2]; 30 μM
  TNF-α: +
[2]; 60 μM
  TNF-α: +
[3]; 10 μM
  Viability: −
[3]; 30 μM
  Viability: −
[3]; 60 μM
  Viability: −

## CC1(C)[C@@H]2CC[C@H](CN3C(=O)C4C5C=CC(C5)C4C3=O)[C@H]1C2 (stereo partly drawn) [Compound 114]
[1]; 10 μM
  Nitrite: +
[1]; 30 μM
  Nitrite: +
[1]; 60 μM
  Nitrite: +
[2]; 10 μM
  TNF-α: +
[2]; 30 μM
  TNF-α: +
[2]; 60 μM
  TNF-α: +
[3]; 10 μM
  Viability: −
[3]; 30 μM
  Viability: −
[3]; 60 μM
  Viability: −

## CC1(C)[C@@H]2CC[C@]1(C)[C@@H](N1C(=O)C3CC=CCC3C1=O)C2 (stereo partly drawn) [Compound 115]
[1]; 10 μM
  Nitrite: +
[1]; 30 μM
  Nitrite: +
[1]; 60 μM
  Nitrite: +
[2]; 10 μM
  TNF-α: +
[2]; 30 μM
  TNF-α: +
[2]; 60 μM
  TNF-α: +
[3]; 10 μM
  Viability: −
[3]; 30 μM
  Viability: −
[3]; 60 μM
  Viability: −

## CC1(C)[C@@H]2CC[C@@]1(C)[C@@H](N1C(=O)C3C4C=CC(C4)C3C1=O)C2 (stereo partly drawn) [Compound 116]
[1]; 10 μM
  Nitrite: NS
[1]; 30 μM
  Nitrite: NS
[1]; 60 μM
  Nitrite: NS
[2]; 10 μM
  TNF-α: NS
[2]; 30 μM
  TNF-α: NS
[2]; 60 μM
  TNF-α: NS
[3]; 10 μM
  Viability: −
[3]; 30 μM
  Viability: −
[3]; 60 μM
  Viability: NS

## CC1(C)[C@@H]2CC[C@]1(C)[C@@H](N1C(=O)C3C4C=CC(C4)C3C1=O)C2 (stereo partly drawn) [Compound 117]
[1]; 10 μM
  Nitrite: +
[1]; 30 μM
  Nitrite: +
[1]; 60 μM
  Nitrite: +
[2]; 10 μM
  TNF-α: +
[2]; 30 μM
  TNF-α: +
[2]; 60 μM
  TNF-α: +
[3]; 10 μM
  Viability: −
[3]; 30 μM
  Viability: −
[3]; 60 μM
  Viability: −

## C[C@H]1[C@H](N2C(=O)C3CC=CCC3C2=O)C[C@@H]2C[C@H]1C2(C)C (stereo partly drawn) [Compound 118]
[1]; 10 μM
  Nitrite: +
[1]; 30 μM
  Nitrite: +
[1]; 60 μM
  Nitrite: +
[2]; 10 μM
  TNF-α: +
[2]; 30 μM
  TNF-α: +
[2]; 60 μM
  TNF-α: +
[3]; 10 μM
  Viability: −
[3]; 30 μM
  Viability: −
[3]; 60 μM
  Viability: −

## C[C@H]1[C@H](N2C(=O)C3C4C=CC(C4)C3C2=O)C[C@@H]2C[C@H]1C2(C)C (stereo partly drawn) [Compound 119]
[1]; 10 μM
  Nitrite: +
[1]; 30 μM
  Nitrite: +
[1]; 60 μM
  Nitrite: +
[2]; 10 μM
  TNF-α: +
[2]; 30 μM
  TNF-α: +
[2]; 60 μM
  TNF-α: +
[3]; 10 μM
  Viability: −
[3]; 30 μM
  Viability: −
[3]; 60 μM
  Viability: −

From patent US11440880B2, “Thalidomide analogs and methods of use” (The USA, as represented by the Secretary, Department of …, priority 2015, dated 2022)
